Measurements: paper PMC8445441, “Elucidating the mechanism by which synthetic helper peptides sensitize Pseudomonas aeruginosa to multiple antibiotics” (PLoS Pathogens, 2021)
Read-outs that look alike come from different tables or passages of the source.

Legend:
[1] = system: P. aeruginosa AUMC-Pa-1; details: strain AUMC-Pa-1; antibiotic + D-11 (MICb/MICbc 128/4)
Method: (§1) The MIC tests were performed in triplicate using broth microdilution in accordance with Clinical and Laboratory Standards Institute (CLSI) recommendations (http://iacld.ir/DL/public/CLSI-2018-M100-S28.pdf). Briefly, drugs were two-fold diluted in MHB and mixed with an equal volume of bacterial suspensions containing approximately 1 × 10^6 CFU/mL in 96-well microliter plate. After 18 h incubation at 37 °C, the MIC values were defined as the lowest concentrations of antibiotics with no visible growth of bacteria. […] Otherwise, 1/4 MIC of the peptide was used in the combination. […] If needed, membrane compounds PG, PE, PC, CL or LPS, or membrane stabilizers MgCl2 or CaCl2, or efflux pumps inhibitor PAβN were added to the broth medium to clarify the effect of other substances on the synergy between peptide and antibiotics. All the tests were performed in triplicate.
(§2) The fractional inhibitory concentration (FIC) indices were calculated using the previously described formula FICI = FICa + FICb = MICac/MICa + MICbc/MICb. The FICI was interpreted according to EUCAST [65] as follows: synergistic, FICI≤0.5; additive, 0.5<FICI≤1; indifferent, 1<FICI<2; antagonistic, FICI ≥2. For the FICI calculations, twice the highest concentration tested was used in the cases where the MIC was not reached.

[2] = system: P. aeruginosa AUMC-Pa-2; details: strain AUMC-Pa-2; antibiotic + D-11 (MICb/MICbc 64/4)
Method: as §1, §2

[3] = system: P. aeruginosa AUMC-Pa-3; test: microbe, parasite or virus in culture
Outline: (§3)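 Values are lowest concentrations showing no visible growth after 18 h at 37 °C. Drugs were serially halved in MHB and combined with equal volumes of a roughly 1 × 10^6 CFU/mL suspension, following CLSI guidance, in triplicate.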

[4] = system: P. aeruginosa AUMC-Pa-6; test: microbe, parasite or virus in culture
Outline: as §3

[5] = system: P. aeruginosa AUMC-Pa-5; test: microbe, parasite or virus in culture; details: strain AUMC-Pa-5
Outline: as §3

[6] = system: P. aeruginosa PAO1; test: microbe, parasite or virus in culture; details: for FICI / MICac: the MIC for the antibiotic in the combination: S3 Table, PAO1
Outline: as §3

[7] = system: P. aeruginosa AUMC-Pa-4; test: microbe, parasite or virus in culture
Outline: as §3

[8] = system: P. aeruginosa HM-214; details: strain HM-214; antibiotic + D-11 (MICb/MICbc 128/4)
Method: as §1, §2

[9] = system: clinical P. aeruginosa isolates; test: microbe, parasite or virus in culture; details: Pseudomonas aeruginosa, 18 h
Outline: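 MIC is the lowest drug concentration showing no visible growth after 18 h at 37 °C. Two-fold dilutions in MHB were combined with an equal volume of bacterial suspension (about 1 × 10^6 CFU/mL), following CLSI broth microdilution, in triplicate.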

[10] = system: P. aeruginosa PA14; test: microbe, parasite or virus in culture; design: MICa: MIC of the antibiotic / MICac: MIC of the antibiotic in the combination: unit not given beside the values; details: strain PA14
Method: as §1, §2

[11] = system: P. aeruginosa ATCC27853; test: microbe, parasite or virus in culture; design: MICa: MIC of the antibiotic / MICac: MIC of the antibiotic in the combination: unit not given beside the values
Method: as §1, §2

[12] = system: P. aeruginosa NR-31041; test: microbe, parasite or virus in culture; design: MICa: MIC of the antibiotic / MICac: MIC of the antibiotic in the combination: unit not given beside the values
Method: as §1, §2

[13] = system: P. aeruginosa NR-31040; test: microbe, parasite or virus in culture; design: MICa: MIC of the antibiotic / MICac: MIC of the antibiotic in the combination: unit not given beside the values; details: strain NR-31040
Method: as §1, §2

[14] = system: P. aeruginosa PAK; test: microbe, parasite or virus in culture; design: MICa: MIC of the antibiotic / MICac: MIC of the antibiotic in the combination: unit not given beside the values
Method: as §1, §2

[15] = antibiotic alone, unit not given
[16] = with D-11 at MICbc 4, unit not given
[17] = antibiotic + D-11 (MICb/MICbc 128/4)

## CO[C@@H]1[C@@H](OC(=O)c2ccc(C)[nH]2)[C@@H](O)[C@H](Oc2ccc3c(O)c(NC(=O)c4ccc(O)c(CC=C(C)C)c4)c(=O)oc3c2Cl)OC1(C)C [Chlorobiocin]
[1]
  FICI: 1.031
[2]
  FICI: 2.063
[3]; Pseudomonas aeruginosa, AUMCPA3, 18 h, read-out: MICa: MIC of the antibiotic
  MIC: 0.5 µM
[3]; strain AUMC-Pa-3, antibiotic + D-11 (MICb/MICbc 128/4)
  FICI: 1.031
[3]; strain AUMC-Pa-3, with D-11 at MICbc 4, unit not given
  MICac: MIC of the antibiotic in the combination: 0.5/0.5
[4]; Pseudomonas aeruginosa, AUMCPA6, 18 h, read-out: MICa: MIC of the antibiotic
  MIC: 0.25 µM
[4]; strain AUMC-Pa-6, antibiotic + D-11 (MICb/MICbc 64/4)
  FICI: 1.063
[4]; strain AUMC-Pa-6, with D-11 at MICbc 4, unit not given
  MICac: MIC of the antibiotic in the combination: 0.25/0.25
[5]; antibiotic + D-11 (MICb/MICbc 64/4)
  FICI: 2.063
[5]; [15]
  MICa: MIC of the antibiotic: 1
[5]; [16]
  MICac: MIC of the antibiotic in the combination: 2
[6]; Pseudomonas aeruginosa, PAO1, 18 h, read-out: MICa: the MIC of antibiotics
  MIC: 0.5 µM
[6]; antibiotic + 2 μM D-11
  FICI: 0.313
[6]; antibiotic + 4 μM D-11
  FICI: 0.375
[6]; with 2 μM D-11
  MICac: the MIC for the antibiotic in the combination: 0.125 µM
[6]; with 4 μM D-11
  MICac: the MIC for the antibiotic in the combination: 0.125 µM
[7]; Pseudomonas aeruginosa, AUMCPA4, 18 h, read-out: MICa: MIC of the antibiotic
  MIC: 0.25 µM
[7]; strain AUMC-Pa-4, antibiotic + D-11 (MICb/MICbc 128/4)
  FICI: 2.031
[7]; strain AUMC-Pa-4, with D-11 at MICbc 4, unit not given
  MICac: MIC of the antibiotic in the combination: 0.5
[8]
  FICI: 1.031
[9]; read-out: Antibiotic sensibility (MIC) of clinical P. aeruginosa isolate AUMC-Pa-1
  MIC: 4 µM
[9]; read-out: Antibiotic sensibility (MIC) of clinical P. aeruginosa isolate AUMC-Pa-2
  MIC: 0.25 µM
[9]; read-out: Antibiotic sensibility (MIC) of clinical P. aeruginosa isolate AUMC-Pa-3
  MIC: 0.5 µM
[9]; read-out: Antibiotic sensibility (MIC) of clinical P. aeruginosa isolate AUMC-Pa-4
  MIC: 0.25 µM
[9]; read-out: Antibiotic sensibility (MIC) of clinical P. aeruginosa isolate AUMC-Pa-5
  MIC: 1 µM
[9]; read-out: Antibiotic sensibility (MIC) of clinical P. aeruginosa isolate AUMC-Pa-6
  MIC: 0.25 µM
[9]; read-out: Antibiotic sensibility (MIC) of clinical P. aeruginosa isolate HM-214
  MIC: 1 µM
[9]; read-out: Antibiotic sensibility (MIC) of clinical P. aeruginosa isolate NR-31040
  MIC: 1 µM
[9]; read-out: Antibiotic sensibility (MIC) of clinical P. aeruginosa isolate NR-31041
  MIC: 1 µM
[10]; [17]
  FICI: 1.031
[10]; [15]
  MICa: MIC of the antibiotic: 1/1
[10]; [16]
  MICac: MIC of the antibiotic in the combination: 1/1
[11]; Pseudomonas aeruginosa, ATCC27853, 18 h, read-out: MICa: MIC of the antibiotic
  MIC: 0.5 µM
[11]; strain ATCC27853, antibiotic + D-11 (MICb/MICbc 32/4)
  FICI: 1.125
[11]; strain ATCC27853, with D-11 at MICbc 4, unit not given
  MICac: MIC of the antibiotic in the combination: 0.5/0.5
[12]; Pseudomonas aeruginosa, NR31041, 18 h, read-out: MICa: MIC of the antibiotic
  MIC: 1 µM
[12]; strain NR-31041, antibiotic + D-11 (MICb/MICbc 64/4)
  FICI: 0.563
[12]; strain NR-31041, with D-11 at MICbc 4, unit not given
  MICac: MIC of the antibiotic in the combination: 0.5
[13]; [17]
  FICI: 1.031
[13]; [15]
  MICa: MIC of the antibiotic: 1/1
[13]; [16]
  MICac: MIC of the antibiotic in the combination: 1/1
[14]; Pseudomonas aeruginosa, 18 h, read-out: MICa: MIC of the antibiotic
  MIC: 0.5 µM
[14]; strain PAK, antibiotic + D-11 (MICb/MICbc 64/4)
  FICI: 1.063
[14]; strain PAK, with D-11 at MICbc 4, unit not given
  MICac: MIC of the antibiotic in the combination: 0.5/0.5
